From patent publication US9681664B2, “Macrocyclic picolinamides as fungicides” (Dow Agrosciences LLC, priority 2012, dated 2017)
Where two headings read alike, the source gives them in different places.

Key:
[1] = system: Mycosphaerella graminicola; Anamorph: Septoria tritici; assay: Leaf blotch of wheat (SEPTTR) disease control on wheat seedlings; type: in vivo; details: Zymoseptoria tritici, High volume application, 100 ppm
In short: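 Wheat seedlings (Yuma, first leaf emerged) sprayed to run-off with compound in acetone/water with 110 ppm Triton X-100, or track-sprayed as EC with 0.1% Trycol 5941. Septoria tritici spores inoculated before or after treatment. Dew chambers, then 20 °C greenhouse. Percent disease control derived from severity (0–100%) relative to untreated plants.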

[2] = system: Puccinia triticina; Synonym: Puccinia recondite f. sp. tritici; assay: Wheat brown rust (PUCCRT) disease control on wheat seedlings; type: in vivo; details: Puccinia triticina, High volume application, 100 ppm
In short: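 Acetone solutions diluted in nine volumes of water with 110 ppm Triton X-100 sprayed to run-off on first-leaf Yuma wheat seedlings (track spray: EC with 0.1% Trycol 5941). Puccinia triticina spores inoculated before or after treatment; overnight dark dew at 22° C., 100% RH, then greenhouse at 24° C. for disease development.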

[3] = 24 h, 1 Day Protectant, read-out: SEPTTR 1DP disease control
[4] = 72 h, 3 Day Curative, read-out: SEPTTR 3DC disease control
[5] = 24 h, 1 Day Protectant, read-out: PUCCRT 1DP disease control
[6] = 72 h, 3 Day Curative, read-out: PUCCRT 3DC disease control

SMILES	pest or weed control at 100 ppm [1, 3] [%]	pest or weed control at 100 ppm [1, 4] [%]	pest or weed control at 100 ppm [2, 5] [%]	pest or weed control at 100 ppm [2, 6] [%]
CCCO[C@H]1[C@H](C)OC(=O)[C@@H](NC(=O)c2nccc(OC)c2OCOC(=O)C(C)C)CCC[C@@H]1OC1CCCC1 [F123]	80 to 100	80 to 100	80 to 100	80 to 100
COc1ccnc(C(=O)N[C@H]2CCC[C@H](OC3CCCC3)[C@@H](OCC(C)C)[C@H](C)OC2=O)c1OCOC(=O)C(C)C [F124]	80 to 100	80 to 100	80 to 100	80 to 100
COc1ccnc(C(=O)N[C@H]2CCC[C@H](OC3CCCC3)[C@@H](OCCCC(F)(F)F)[C@H](C)OC2=O)c1OCOC(C)=O [F125]	80 to 100	80 to 100	80 to 100	80 to 100
COc1ccnc(C(=O)N[C@H]2CCC[C@H](OC3CCCC3)[C@@H](OCCCC(F)(F)F)[C@H](C)OC2=O)c1OCOC(=O)C(C)C [F126]	80 to 100	80 to 100	80 to 100	80 to 100
CCCO[C@H]1CCC[C@H](NC(=O)c2nccc(OC)c2O)C(=O)O[C@@H](C)[C@@H]1Oc1ccccc1 [F127]	80 to 100	80 to 100	80 to 100	80 to 100
COc1ccnc(C(=O)N[C@H]2CCC[C@H](OCCCc3ccccc3)[C@@H](Oc3ccccc3)[C@H](C)OC2=O)c1O [F128]	80 to 100	< 0	80 to 100	0 to 80
COc1ccnc(C(=O)N[C@H]2CCC[C@H](OCCCC(F)(F)F)[C@@H](Oc3ccccc3)[C@H](C)OC2=O)c1O [F129]	80 to 100	< 0	80 to 100	80 to 100
COc1ccnc(C(=O)N[C@H]2CCC[C@H](Oc3ccccc3)[C@@H](OCCCc3ccccc3)[C@H](C)OC2=O)c1OC(C)=O [F131]	80 to 100	80 to 100	80 to 100	80 to 100
COc1ccnc(C(=O)N[C@H]2CCC[C@H](OCCCC(F)(F)F)[C@@H](Oc3ccccc3)[C@H](C)OC2=O)c1OCOC(C)=O [F135]	80 to 100	80 to 100	80 to 100	80 to 100
COc1ccnc(C(=O)N[C@H]2CCC[C@H](OCCCC(F)(F)F)[C@@H](Oc3ccccc3)[C@H](C)OC2=O)c1OCOC(=O)C(C)C [F136]	80 to 100	80 to 100	80 to 100	80 to 100
COc1ccnc(C(=O)N[C@H]2CCC[C@H](OCCCC(F)(F)F)[C@@H](Oc3ccccc3)[C@H](C)OC2=O)c1OC(C)=O [F137]	80 to 100	80 to 100	80 to 100	80 to 100
COc1ccnc(C(=O)N[C@H]2CCC[C@H](OC3CCCC3)[C@@H](OC(=O)C3CC3)[C@H](C)OC2=O)c1O [F142]	0 to 80	80 to 100	80 to 100	80 to 100
COc1ccnc(C(=O)N[C@H]2CCC[C@H](OC3CCCC3)[C@@H](OC(=O)C3CCCC3)[C@H](C)OC2=O)c1O [F143]	80 to 100	0 to 80	80 to 100	80 to 100
COc1ccnc(C(=O)N[C@H]2CCC[C@H](OC3CCCC3)[C@@H](OC(=O)C3CC3)[C@H](C)OC2=O)c1OCOC(C)=O [F144]	80 to 100	80 to 100	80 to 100	80 to 100
COc1ccnc(C(=O)N[C@H]2CCC[C@H](OC3CCCC3)[C@@H](OC(=O)C3CC3)[C@H](C)OC2=O)c1OCOC(=O)C(C)C [F145]	80 to 100	80 to 100	80 to 100	80 to 100
COCCC(=O)Oc1c(OC)ccnc1C(=O)N[C@H]1CCC[C@H](OC2CCCC2)[C@@H](OCC(C)C)[C@H](C)OC1=O [F146]	80 to 100	80 to 100	80 to 100	80 to 100
COCCC(=O)Oc1c(OC)ccnc1C(=O)N[C@H]1CCC[C@H](OC2CCCC2)[C@@H](OC(=O)C2CC2)[C@H](C)OC1=O [F147]	80 to 100	80 to 100	80 to 100	80 to 100

SMILES	pest or weed control at 100 ppm [1, 3] [%]	pest or weed control at 100 ppm [1, 4] [%]	pest or weed control at 100 ppm [2, 5] [%]	pest or weed control at 100 ppm [2, 6] [%]
COc1ccnc(C(=O)N[C@H]2CCC[C@H](OC3CCCC3)[C@@H](OC(=O)C3CCCC3)[C@H](C)OC2=O)c1OCOC(C)=O [F148]	80 to 100	80 to 100	80 to 100	80 to 100
COc1ccnc(C(=O)N[C@H]2CCC[C@H](OCC(C)C)[C@@H](OC(=O)C3CCCC3)[C@H](C)OC2=O)c1O [F149]	80 to 100	0 to 80	80 to 100	80 to 100
COc1ccnc(C(=O)N[C@H]2CCC[C@H](OCC(C)C)[C@@H](OC(=O)C3CCCC3)[C@H](C)OC2=O)c1OCOC(C)=O [F150]	80 to 100	80 to 100	80 to 100	80 to 100
COc1ccnc(C(=O)N[C@H]2CCC[C@H](OCC(C)C)[C@@H](OC(=O)C3CCCC3)[C@H](C)OC2=O)c1OC(C)=O [F151]	80 to 100	80 to 100	80 to 100	80 to 100
COCCC(=O)Oc1c(OC)ccnc1C(=O)N[C@H]1CCC[C@H](OCC(C)C)[C@@H](OC(=O)C2CCCC2)[C@H](C)OC1=O [F152]	80 to 100	80 to 100	80 to 100	80 to 100
CCCO[C@H]1CCC[C@H](NC(=O)c2nccc(OC)c2O)C(=O)O[C@@H](C)[C@@H]1OC1CCCC1 [F153]	80 to 100	80 to 100	80 to 100	80 to 100
COc1ccnc(C(=O)N[C@H]2CCC[C@H](OC(=O)C3CCCC3)[C@@H](OC3CCCC3)[C@H](C)OC2=O)c1O [F156]	80 to 100	80 to 100	80 to 100	80 to 100
COc1ccnc(C(=O)N[C@H]2CCC[C@H](OC(=O)C3CCCC3)[C@@H](OC3CCCC3)[C@H](C)OC2=O)c1OCOC(=O)C(C)C [F157]	80 to 100	80 to 100	80 to 100	80 to 100
COc1ccnc(C(=O)N[C@H]2CCC[C@H](OC(=O)C3CCCC3)[C@@H](OC3CCCC3)[C@H](C)OC2=O)c1OCOC(C)=O [F158]	80 to 100	80 to 100	80 to 100	80 to 100
COc1ccnc(C(=O)N[C@H]2CCC[C@H](OC(=O)C3CCCC3)[C@@H](OC3CCCC3)[C@H](C)OC2=O)c1OC(C)=O [F159]	80 to 100	80 to 100	80 to 100	80 to 100
COc1ccnc(C(=O)N[C@H]2CCC[C@H](Oc3ccc(F)cc3)[C@@H](OC3CCCC3)[C@H](C)OC2=O)c1O [F160]	80 to 100	80 to 100	80 to 100	80 to 100
COc1ccnc(C(=O)N[C@H]2CCC[C@H](Oc3ccc(F)cc3)[C@@H](OC3CCCC3)[C@H](C)OC2=O)c1OCOC(=O)C(C)C [F161]	80 to 100	80 to 100	80 to 100	80 to 100
COc1ccnc(C(=O)N[C@H]2CCC[C@H](Oc3ccc(F)cc3)[C@@H](OC3CCCC3)[C@H](C)OC2=O)c1OCOC(C)=O [F162]	80 to 100	80 to 100	80 to 100	0 to 80
COc1ccnc(C(=O)N[C@H]2CCC[C@H](OC3CCCC3)[C@@H](OCCCc3ccccc3)[C@H](C)OC2=O)c1O [F163]	80 to 100	0 to 80	80 to 100	80 to 100
CCCCCO[C@H]1[C@H](C)OC(=O)[C@@H](NC(=O)c2nccc(OC)c2O)CCC[C@@H]1OC1CCCC1 [F164]	80 to 100	80 to 100	80 to 100	80 to 100
COc1ccc(O[C@H]2CCC[C@H](NC(=O)c3nccc(OC)c3O)C(=O)O[C@@H](C)[C@@H]2OC2CCCC2)cc1 [F167]	80 to 100	80 to 100	80 to 100	80 to 100
COc1ccnc(C(=O)N[C@H]2CCC[C@H](OCCCC(F)(F)F)[C@@H](OC3CCCC3)[C@H](C)OC2=O)c1O [F168]	80 to 100	80 to 100	80 to 100	80 to 100
